Laboratory results from patent US4663309A, “Novel peptide hormones with calcitonin-like activity” (University Patents, Inc., priority 1985, dated 1987).
“Also recorded” adds a separate entry of the source. Bridge positions count the residues as written; N and C are the ends. Peptide text beside a SMILES is read from it.

Assays:
[1] = target: T1, calcitonin receptors (brain particulate fraction) (Rattus norvegicus, UniProt P32214)
T1 sequence (P32214 25-516): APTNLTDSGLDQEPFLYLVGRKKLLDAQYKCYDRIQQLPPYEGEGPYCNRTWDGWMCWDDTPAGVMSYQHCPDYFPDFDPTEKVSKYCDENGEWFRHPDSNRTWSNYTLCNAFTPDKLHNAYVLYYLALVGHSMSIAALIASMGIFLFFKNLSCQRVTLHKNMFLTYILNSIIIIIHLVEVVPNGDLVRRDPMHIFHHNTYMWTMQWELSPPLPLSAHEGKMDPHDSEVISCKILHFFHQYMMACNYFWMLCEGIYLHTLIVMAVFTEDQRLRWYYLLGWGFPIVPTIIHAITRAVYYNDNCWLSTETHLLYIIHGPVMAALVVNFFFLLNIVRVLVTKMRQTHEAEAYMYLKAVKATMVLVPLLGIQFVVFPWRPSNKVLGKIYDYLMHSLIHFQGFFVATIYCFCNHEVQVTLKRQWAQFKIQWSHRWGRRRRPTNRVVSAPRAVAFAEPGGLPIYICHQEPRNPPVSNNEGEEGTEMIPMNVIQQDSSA

male Sprague-Dawley rats = assay: In vivo relative hypocalcemic potency in rats (Example 10); parameters: species or system rat
Procedure: The relative hypocalcemic potency of MCT-II and SCT-I was assessed by giving 3 to 4 week-old male Sprague-Dawley rats (Charles River Breeding Laboratories) subcutaneous injections of hormone in 0.9% saline containing 0.1% BSA. In each experiment, 25 rats were divided into 5 groups of 5 rats each and each group given either saline alone or saline with hormone. Blood samples were obtained by cardiac puncture from the ether-anesthetized rats 1 hr after injection. 200 μl of the blood plasma was diluted in 5 ml of 5% trichloroacetic acid-1000 ppm lithium (Chem-Chek Consulting Inc., South Boundbrook, NJ) and centrifuged before determining the calcium concentration by plasma emission spectrometry (Beckman Spectra Span IV™, Beckman Instruments). Calcium standards were also purchased from Chem-Chek Consulting Inc.

| IC50 [1] | SMILES | Activity relative to MCT-I (male Sprague-Dawley rats; in all assays used to compare them) | Hypocalcemic potency relative to SCT-I (male Sprague-Dawley rats; subcutaneous, 0.1 to 100 ng/100 g body weight, 1 hr after injection, b99: all assays used to compare them) |
| --- | --- | --- | --- |
| 17 nM | CC(C)C[C@@H]1NC(=O)[C@H](CC(N)=O)NC(=O)CNC(=O)[C@@H](N)CSSC[C@@H](C(=O)N[C@@H](CC(C)C)C(=O)N[C@@H](CC(C)C)C(=O)N[C@@H](CCC(N)=O)C(=O)N[C@@H](CCC(N)=O)C(=O)N[C@@H](Cc2c[nH]c3ccccc23)C(=O)N[C@@H](CCC(N)=O)C(=O)N[C@@H](CCCCN)C(=O)N[C@@H](CC(C)C)C(=O)N[C@@H](CC(C)C)C(=O)N[C@@H](CCC(N)=O)C(=O)N[C@@H](CCCCN)C(=O)N[C@@H](CC(C)C)C(=O)N[C@@H](CCCCN)C(=O)N[C@@H](CCC(N)=O)C(=O)N[C@@H](CC(C)C)C(=O)N2CCC[C@H]2C(=O)N[C@@H](CCCNC(=N)N)C(=O)N[C@H](C(=O)N[C@@H](CC(N)=O)C(=O)N[C@H](C(=O)NCC(=O)N[C@@H](CO)C(=O)NCC(=O)N[C@H](C(=O)N2CCC[C@H]2C(N)=O)[C@@H](C)O)[C@@H](C)O)[C@@H](C)O)NC(=O)[C@H]([C@@H](C)O)NC(=O)[C@H](CO)NC1=O [MCT-I] (H-CGNLSTCLLQQWQKLLQKLKQLPRTNTGSGTP-NH2; disulfide 1-7) | – | – |
| – | CC(C)C[C@H](NC(=O)[C@H](CCCCN)NC(=O)[C@H](CCC(N)=O)NC(=O)[C@H](CC(C)C)NC(=O)[C@H](CCC(N)=O)NC(=O)[C@H](CCC(N)=O)NC(=O)[C@H](CC(C)C)NC(=O)[C@H](CC(C)C)NC(=O)[C@@H]1CSSC[C@H](N)C(=O)N[C@@H](CO)C(=O)N[C@@H](CC(N)=O)C(=O)N[C@@H](CC(C)C)C(=O)N[C@@H](CO)C(=O)N[C@@H]([C@@H](C)O)C(=O)N1)C(=O)N[C@@H](CC(C)C)C(=O)N[C@@H](CCC(N)=O)C(=O)N[C@@H](CCCCN)C(=O)N[C@@H](CC(C)C)C(=O)N[C@@H](CCCCN)C(=O)N[C@@H](CCC(N)=O)C(=O)N[C@@H](Cc1ccc(O)cc1)C(=O)N1CCC[C@H]1C(=O)N[C@@H](CCCNC(=N)N)C(=O)N[C@H](C(=O)N[C@@H](CC(N)=O)C(=O)N[C@H](C(=O)NCC(=O)N[C@@H](CO)C(=O)NCC(=O)N[C@H](C(=O)N1CCC[C@H]1C(N)=O)[C@@H](C)O)[C@@H](C)O)[C@@H](C)O [MCT-II] (H-CSNLSTCLLQQLQKLLQKLKQYPRTNTGSGTP-NH2; disulfide 1-7; N-terminus assumed) | 10 times | indistinguishable from that of our preparation of SCT-I; also recorded: as active as SCT-I |
